Measurements reported in PubChem BioAssay AID1845200 (Molecular Pharmacology Branch, DTP, NCI, 2023).

Tested on: ASPS-1 complex tumor spheroids, viability
Assay: Anticancer human tumor ASPS-1 cell line growth inhibition;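 further: spheroids exposed to agents for 7 days after 3 days of growth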;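 on viability, T/C: 100% = DMSO vehicle treated spheroids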
Conditions: for IC50: curve of first compound; for viability, T/C: stronger effect = lower value
Procedure, shortened: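 Single agents and combinations were tested on spheroids built from tumor cells plus HUVEC and hMSC, at half-log dilutions starting at or near clinical Cmax, else 10 microM; final DMSO 0.25% (v/v).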

Which IC50 (second compound 0.003 µM) does the source give for `CC(C)n1c(=O)n(C)c2cnc3cc(F)c(-c4ccc(OCCCN5CCCCC5)nc4)cc3c21` + CC[C@@]1(O)C(=O)OCc2c1cc1n(c2=O)Cc2cc3c(CN(C)C)c(O)ccc3nc2-1 here?
Its IC50 is 6680 nM.

And the IC50 (second compound 0.00949 µM)?
Its IC50 is 5200 nM.

What about the IC50 (second compound 0.03 µM) of the same compound?
Its IC50 is 184 nM.

And the IC50 (second compound 0.0949 µM)?
The IC50 was 161 nM.

What about the IC50 (second compound 0.3 µM) of the same compound?
The IC50 was 188 nM.

What about the viability, T/C (second compound 0.003 µM, first compound 0.0316 µM) of the same compound?
Its viability, T/C is 99.3%.

What about the viability, T/C (second compound 0.003 µM, first compound 0.1 µM) of the same compound?
The viability, T/C was 99.6%.

What about the viability, T/C (second compound 0.003 µM, first compound 0.316 µM) of the same compound?
The viability, T/C was 108%.

And the viability, T/C (second compound 0.003 µM, first compound 1 µM)?
Its viability, T/C is 98%.

And the viability, T/C (second compound 0.003 µM, first compound 3.16 µM)?
Its viability, T/C is 82.9%.

And the viability, T/C (second compound 0.003 µM, first compound 10 µM)?
Its viability, T/C is 32.4%.

What about the viability, T/C (second compound 0.00949 µM, first compound 0.0316 µM) of the same compound?
Its viability, T/C is 82.9%.

What about the viability, T/C (second compound 0.00949 µM, first compound 0.1 µM) of the same compound?
The viability, T/C was 69.2%.

And the viability, T/C (second compound 0.00949 µM, first compound 0.316 µM)?
The viability, T/C was 71%.

What about the viability, T/C (second compound 0.00949 µM, first compound 1 µM) of the same compound?
Its viability, T/C is 65.6%.

What about the viability, T/C (second compound 0.00949 µM, first compound 3.16 µM) of the same compound?
Its viability, T/C is 67%.

And the viability, T/C (second compound 0.00949 µM, first compound 10 µM)?
Its viability, T/C is 30.6%.

What about the viability, T/C (second compound 0.03 µM, first compound 0.0316 µM) of the same compound?
Its viability, T/C is 61.1%.

What about the viability, T/C (second compound 0.03 µM, first compound 0.1 µM) of the same compound?
The viability, T/C was 53%.

And the viability, T/C (second compound 0.03 µM, first compound 0.316 µM)?
Its viability, T/C is 48%.

What about the viability, T/C (second compound 0.03 µM, first compound 1 µM) of the same compound?
Its viability, T/C is 31.3%.

And the viability, T/C (second compound 0.03 µM, first compound 3.16 µM)?
Its viability, T/C is 33.2%.

What about the viability, T/C (second compound 0.03 µM, first compound 10 µM) of the same compound?
The viability, T/C was 27.1%.

And the viability, T/C (second compound 0.0949 µM, first compound 0.0316 µM)?
The viability, T/C was 64.3%.

What about the viability, T/C (second compound 0.0949 µM, first compound 0.1 µM) of the same compound?
Its viability, T/C is 54.7%.

What about the viability, T/C (second compound 0.0949 µM, first compound 0.316 µM) of the same compound?
The viability, T/C was 41.8%.

And the viability, T/C (second compound 0.0949 µM, first compound 1 µM)?
The viability, T/C was 21.9%.

And the viability, T/C (second compound 0.0949 µM, first compound 3.16 µM)?
Its viability, T/C is 22.4%.

What about the viability, T/C (second compound 0.0949 µM, first compound 10 µM) of the same compound?
Its viability, T/C is 26.1%.

What about the viability, T/C (second compound 0.3 µM, first compound 0.0316 µM) of the same compound?
The viability, T/C was 62.9%.

And the viability, T/C (second compound 0.3 µM, first compound 0.1 µM)?
Its viability, T/C is 60.6%.

And the viability, T/C (second compound 0.3 µM, first compound 0.316 µM)?
The viability, T/C was 40.9%.

What about the viability, T/C (second compound 0.3 µM, first compound 1 µM) of the same compound?
Its viability, T/C is 22%.

What about the viability, T/C (second compound 0.3 µM, first compound 3.16 µM) of the same compound?
The viability, T/C was 20.9%.

What about the viability, T/C (second compound 0.3 µM, first compound 10 µM) of the same compound?
Its viability, T/C is 24.2%.

How did the IC50 (second compound 30 pM) turn out when `CNCc1ccc(-c2cc(-c3nc(-c4ccc(S(=O)(=O)C(C)C)cc4)cnc3N)on2)cc1` + COc1cc2c(cc1O)CCNC21CSC2c3c(OC(C)=O)c(C)c4c(c3C(COC1=O)N1C(O)C3Cc5cc(C)c(OC)c(O)c5C(C21)N3C)OCO4 was run?
The IC50 was 922 nM.

What about the IC50 (second compound 94.9 pM) of the same compound?
The IC50 was 857 nM.

And the IC50 (second compound 0.0003 µM)?
The IC50 was 552 nM.

And the IC50 (second compound 0.000949 µM)?
The IC50 was 185 nM.

What about the IC50 (second compound 0.003 µM) of the same compound?
Its IC50 is less than 9.49 nM.

What about the viability, T/C (second compound 30 pM, first compound 0.00949 µM) of the same compound?
The viability, T/C was 109%.

And the viability, T/C (second compound 30 pM, first compound 0.03 µM)?
The viability, T/C was 104%.

What about the viability, T/C (second compound 30 pM, first compound 0.0949 µM) of the same compound?
Its viability, T/C is 105%.

What about the viability, T/C (second compound 30 pM, first compound 0.3 µM) of the same compound?
Its viability, T/C is 74.3%.

What about the viability, T/C (second compound 30 pM, first compound 0.949 µM) of the same compound?
The viability, T/C was 51.9%.

And the viability, T/C (second compound 30 pM, first compound 3 µM)?
Its viability, T/C is 14.9%.

And the viability, T/C (second compound 94.9 pM, first compound 0.00949 µM)?
Its viability, T/C is 106%.

And the viability, T/C (second compound 94.9 pM, first compound 0.03 µM)?
The viability, T/C was 108%.

And the viability, T/C (second compound 94.9 pM, first compound 0.0949 µM)?
The viability, T/C was 108%.

What about the viability, T/C (second compound 94.9 pM, first compound 0.3 µM) of the same compound?
The viability, T/C was 80.8%.

And the viability, T/C (second compound 94.9 pM, first compound 0.949 µM)?
The viability, T/C was 48.3%.

And the viability, T/C (second compound 94.9 pM, first compound 3 µM)?
The viability, T/C was 9.57%.

And the viability, T/C (second compound 0.0003 µM, first compound 0.00949 µM)?
The viability, T/C was 106%.

And the viability, T/C (second compound 0.0003 µM, first compound 0.03 µM)?
The viability, T/C was 111%.

What about the viability, T/C (second compound 0.0003 µM, first compound 0.0949 µM) of the same compound?
The viability, T/C was 102%.

And the viability, T/C (second compound 0.0003 µM, first compound 0.3 µM)?
Its viability, T/C is 66.4%.

What about the viability, T/C (second compound 0.0003 µM, first compound 0.949 µM) of the same compound?
The viability, T/C was 34.7%.

What about the viability, T/C (second compound 0.0003 µM, first compound 3 µM) of the same compound?
Its viability, T/C is 5.83%.

What about the viability, T/C (second compound 0.000949 µM, first compound 0.00949 µM) of the same compound?
The viability, T/C was 85.8%.

And the viability, T/C (second compound 0.000949 µM, first compound 0.03 µM)?
Its viability, T/C is 83%.

And the viability, T/C (second compound 0.000949 µM, first compound 0.0949 µM)?
The viability, T/C was 64.9%.

What about the viability, T/C (second compound 0.000949 µM, first compound 0.3 µM) of the same compound?
Its viability, T/C is 36.1%.

What about the viability, T/C (second compound 0.000949 µM, first compound 0.949 µM) of the same compound?
Its viability, T/C is 20.2%.

And the viability, T/C (second compound 0.000949 µM, first compound 3 µM)?
Its viability, T/C is 1.09%.

What about the viability, T/C (second compound 0.003 µM, first compound 0.00949 µM) of the same compound?
Its viability, T/C is 16.9%.

What about the viability, T/C (second compound 0.003 µM, first compound 0.03 µM) of the same compound?
Its viability, T/C is 24.3%.

What about the viability, T/C (second compound 0.003 µM, first compound 0.0949 µM) of the same compound?
Its viability, T/C is 15.2%.

And the viability, T/C (second compound 0.003 µM, first compound 0.3 µM)?
The viability, T/C was 2.85%.

What about the viability, T/C (second compound 0.003 µM, first compound 0.949 µM) of the same compound?
The viability, T/C was 0.66%.

What about the viability, T/C (second compound 0.003 µM, first compound 3 µM) of the same compound?
Its viability, T/C is 0.65%.
